Measured values as given in ChEMBL document CHEMBL1128654, “4,4-Diphenyl-7-perhydrothiapyrano[3,4-c]pyrrolone, a new series of substance P receptors antagonists” (Bioorg Med Chem Lett, 1995).

Key:
[1] = biological target: Substance-P receptor (Homo sapiens, UniProt P25103); assay: Compound was tested for its binding affinity to NK1 receptor in [3H]SP binding assay on human IM9 lymphoblasts cultured cell line.
[2] = biological target: Substance-P receptor (Rattus norvegicus, UniProt P14600); assay: Compound was tested for its binding affinity to NK1 receptor in [3H]SP binding assay on rat brain membranes.
[3] = test system: Rattus norvegicus; assay: Compound was administered orally and evaluated in vivo for its inhibition of SP-induced plasma extravasation in rat; type: functional; details: po
[4] = test system: Rattus norvegicus; assay: Compound was administered intravenously and evaluated in vivo for its inhibition of SP-induced plasma extravasation in rat; type: functional; details: iv
[5] = test system: Rattus norvegicus; assay: Compound was administered perorally and evaluated in vivo for its inhibition of SP-induced plasma extravasation in rat; type: functional; details: po

Substance-P receptor (Homo sapiens, UniProt P25103), sequence (P25103 whole entry): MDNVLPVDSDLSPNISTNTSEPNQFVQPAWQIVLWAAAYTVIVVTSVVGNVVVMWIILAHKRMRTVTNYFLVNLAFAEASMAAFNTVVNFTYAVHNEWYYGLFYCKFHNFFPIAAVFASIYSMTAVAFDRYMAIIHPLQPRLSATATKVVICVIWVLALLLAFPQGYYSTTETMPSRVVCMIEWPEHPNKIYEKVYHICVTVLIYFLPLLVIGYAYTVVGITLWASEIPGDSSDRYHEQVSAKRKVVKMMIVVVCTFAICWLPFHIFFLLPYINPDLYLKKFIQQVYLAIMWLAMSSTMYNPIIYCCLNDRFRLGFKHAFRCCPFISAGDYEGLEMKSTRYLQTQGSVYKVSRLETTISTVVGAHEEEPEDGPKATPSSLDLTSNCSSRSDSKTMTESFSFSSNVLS
Substance-P receptor (Rattus norvegicus, UniProt P14600), sequence (P14600 whole entry): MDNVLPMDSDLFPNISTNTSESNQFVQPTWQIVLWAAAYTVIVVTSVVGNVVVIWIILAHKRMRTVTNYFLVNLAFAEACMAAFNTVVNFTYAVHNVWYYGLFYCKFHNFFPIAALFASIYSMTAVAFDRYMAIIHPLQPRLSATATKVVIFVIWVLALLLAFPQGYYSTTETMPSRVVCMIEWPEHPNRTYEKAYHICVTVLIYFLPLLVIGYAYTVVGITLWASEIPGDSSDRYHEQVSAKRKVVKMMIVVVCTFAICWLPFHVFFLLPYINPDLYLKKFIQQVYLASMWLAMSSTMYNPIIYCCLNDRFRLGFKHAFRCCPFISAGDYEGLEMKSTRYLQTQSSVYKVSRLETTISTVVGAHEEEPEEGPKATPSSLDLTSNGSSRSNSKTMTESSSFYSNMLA

**Q.** How did the IC50 [1] turn out when `COc1ccccc1CC(=N)N1C[C@@H]2C(=O)CCC(c3ccccc3)(c3ccccc3)[C@@H]2C1` was run?
**A.** The IC50 was 49 nM.

**Q.** And the IC50 [2]?
**A.** Its IC50 is 8 nM.

**Q.** Which ED50 [3] does the source give for `COc1ccccc1CC(=N)N1CC2C(=O)CSC(c3ccccc3)(c3ccccc3)C2C1` (stereo unspecified) here?
**A.** Its ED50 is greater than 10 mg/kg.

**Q.** And the IC50 [1]?
**A.** The IC50 was 9 nM.

**Q.** What about the ED50 [4] of the same compound?
**A.** The ED50 was less than 1 mg/kg.

**Q.** And the IC50 [2]?
**A.** Its IC50 is 2 nM.

**Q.** Which results are given for `CN(C)CCCOc1ccccc1CC(=O)N1CC2C(=O)CSC(c3ccccc3)(c3ccccc3)C2C1` (stereo unspecified)?
**A.** IC50 [1]: 51 nM; IC50 [2]: 26 nM

**Q.** For `COc1ccccc1[C@H](SC)C(=O)N1CC2C(=O)CSC(c3ccccc3)(c3ccccc3)C2C1` (stereo partly specified), which IC50 [1] is on record?
**A.** The IC50 was 15 nM.

**Q.** What about the ED50 [4] of the same compound?
**A.** Its ED50 is 0.1 mg/kg.

**Q.** What about the IC50 [2] of the same compound?
**A.** Its IC50 is 5 nM.

**Q.** What about the ED50 [5] of the same compound?
**A.** Its ED50 is 0.8 mg/kg.

**Q.** Which IC50 [1] does the source give for `CN(C)c1ccccc1CC(=O)N1CC2C(=O)CSC(c3ccccc3)(c3ccccc3)C2C1` (stereo unspecified) here?
**A.** Its IC50 is 83 nM.

**Q.** What about the IC50 [2] of the same compound?
**A.** Its IC50 is 41 nM.

**Q.** Which IC50 [1] does the source give for `COc1ccccc1[C@H](C)C(=O)N1C[C@@H]2[C@H](C1)[C@@](O)(c1ccccc1OC)CSC2(c1ccccc1)c1ccccc1` here?
**A.** Its IC50 is 38 nM.

**Q.** What about the IC50 [2] of the same compound?
**A.** The IC50 was 3000 nM.

**Q.** For `CN(C)c1ccccc1CC(=O)N1C[C@@H]2C(=O)C[S+]([O-])C(c3ccccc3)(c3ccccc3)[C@@H]2C1` (stereo partly specified), which IC50 [2] is on record?
**A.** The IC50 was 470 nM.

**Q.** For `CN(C)c1ccccc1CC(=O)N1C[C@H]2[C@@H](C1)C(c1ccccc1)(c1ccccc1)SC[C@@H]2O`, which IC50 [1] is on record?
**A.** The IC50 was 370 nM.

**Q.** And the IC50 [2]?
**A.** Its IC50 is 77 nM.

**Q.** Which results are given for `COc1ccccc1[C@H](C)C(=O)N1C[C@@H]2[C@H](C1)C(c1ccccc1)(c1ccccc1)CC[C@@]2(O)c1ccccc1OC` [DAPITANT]?
**A.** IC50 [1]: 13 nM; IC50 [2]: 1400 nM
